# Source: US20060110376A1, “MDA-7 and free radicals in the treatment of cancer” (priority 2002, published 2006)
# Tests used:
# Assay type in all cases: cell-based, human
# [1] = tested on: primary renal epithelial cells; assay: MTT cell growth assay; conditions: low concentrations, each agent alone
# Protocol: (§1) FIG. 25A-D. GST-MDA-7 causes a dose-dependent reduction in the proliferation of renal carcinoma cells but not primary renal epithelial cells. Cells were plated in 12 well plates (˜1×10^4 cells/well) and 24 h later treated with increasing concentrations of GST and GST-MDA-7 as indicated. Cell growth was determined via MTT assay 96 h after GST-MDA-7 treatment. Data are the means of 12 wells (one plate per condition, ±SEM) from a representative experiment using different preparations of GST-MDA-7 (n=3). Panel A. UOK121N cells. Panel B. A498 cells. Panel C. Primary renal epithelial cells. Panel D. Primary rat hepatocytes were isolated and cultured as described in Methods. Four hours after plating, hepatocytes were infected with either control CMV virus or Ad.mda-7 (at a multiplicity of infection of 50). […] Cell growth was determined via MTT assay 96 h after MDA-7 treatment. […]
# (§2) FIG. 27A-C. […] Cell growth was determined via MTT assay 96 h after GST-MDA-7 treatment. […]
# (§3) MTT Assay for Determination of Cellular Viability. […] The cytotoxicity of the various treatments was assessed four days after irradiation by measurement of cell viability by use of the MTT assay, as described previously (McKinstry et al., 2002, Cancer Biol. Ther. 1:243-253). The plates were read on a Dynatech MR600 Microplate Reader at 540 nm. […]
# [2] = tested on: RCC cell lines A498 and UOK121N; assay: MTT cell growth assay; conditions: As2O3 0.5 μM; 96 h
# Protocol: as §1, §2, §3
# [3] = tested on: renal carcinoma cells (UOK121N, A498); assay: Clonogenic survival assay; conditions: arsenic trioxide (0.5 μM) alone
# Protocol: Panel A. UOK121N cells. Panel B. A498 cells. Cells were plated in 6 well plates (˜5×10^4 cells/well) and 24 h later treated with GST, GST-MDA-7 (both 0.5 nM) and As2O3 (0.5 μM) as indicated. Cells were isolated 96 h after GST-MDA-7 treatment and cell viability determined using trypan blue exclusion assay (see FIG. 28). Based on trypan blue negative viable cell values, 250, 500 and 2000 viable cells were re-plated in Linbro plates. The plating density for colony formation assays depended upon the prior treatment of the cells and data obtained in FIGS. 27 and 28. 10-14 days after plating, cells were fixed and stained with crystal violet. Colony formation was determined using visual counting, and a colony was defined as a group of >50 cells. Data are the means of 3 separate experiments (±SEM). * p<0.05 less than control cells; # p<0.05 less than As2O3 or GST-MDA-7 treated cells.
# Cell Survival Analyses. Cells were assayed for the effect(s) of GST-MDA-7 and arsenic trioxide on cell survival. Cells were plated (10,000 cells per 60 mm dish) and 24 h after plating treated with GST-MDA-7 or GST. Thirty minutes later, cells were treated with arsenic trioxide. Ninety-six hours later, cells were isolated by trypsinization and viable trypan blue negative cells re-plated in 60 mm dishes at 250-1,000 cells per plate. […] Colonies that contain more than 50 cells were then counted. […]
# [4] = tested on: RCC cell lines A498 and UOK121N; assay: Cell death (Giemsa staining, trypan blue); conditions: 10 mM N-acetyl cysteine 1 h before As2O3
# Protocol: Cells were plated in 6 well plates (˜5×10^4 cells/well) and 24 h later treated with GST, GST-MDA-7 (both 0.5 nM) and As2O3 (0.5 μM) as indicated. Where indicated, cells were pre-treated with 10 mM N-acetyl cysteine 1 h prior to addition of As2O3. Cells were isolated 96 h after GST-MDA-7 treatment. Cell death was determined on isolated fixed cells by Giemsa staining for apoptosis and necrosis (presented as a single value) as described (30). Panel A. UOK121N cells. Panel B. A498 cells. […]
# Assessment of Apoptosis and Cell Death. […] For each condition, 10 randomly selected fields per slide were evaluated, encompassing at least 15000 cells (Dai et al., 2002, Cell Cycle 1:143-152; Qiao et al., 2001, Mol. Biol. Cell 12:2629-2645). To confirm the results of morphologic analysis, in some cases cells were also evaluated by TUNEL staining and oligonucleosomal DNA fragmentation assay as follows; staining, cytospin slides were fixed with 4% formaldehyde/PBS for 10 min, treated with acetic acid/ethanol (1:2) for 5 min, and incubated with terminal transferase reaction mixture containing 1× terminal transferase reaction buffer, […] terminal transferase, 2.5 mM CoCl2, and 2 pmol fluorescein-12-dUTP (Boehringer Mannheim, Indianapolis, Ind.) at 37° C. for 1 h. […]
# Assessment of Cell Viability. […] Cells (˜400) were counted in all four fields of a hemocytometer.
compound,measurement,setting,value
arsenic trioxide,growth potential,[1],Neither low concentrations of arsenic trioxide nor GST-MDA-7 alone altered the growth potential
same,effect of arsenic trioxide on growth suppression by GST-MDA-7,[2],enhanced the growth suppressive effects of GST-MDA-7
same,clonogenicity,[3],significantly reduced clonogenicity
"CC(=O)N[C@@H](CS)C(=O)O [NAC, N-acetyl-cysteine]",effect of N-acetyl-cysteine on cell killing by GST-MDA-7 + arsenic trioxide,[4],significantly reduced cell killing
